Columns and labels:
[1] = Single ascending dose (SAD) study, PK (Example 1 Part 1)
[2] = Video-oculography (VOG), saccades; format: in vivo, human; settings: day 1, all doses tested (250, 375, 500 mg)
Text: Video-oculography (VOG) is a non-invasive, visual method of measuring horizontal, vertical, and torsional components involved in eye tracking, making use of a head-mounted mask equipped with cameras. VOG was used to measure 3 assessment metrics: horizontal saccades (movement of eyes towards a point of fixation), horizontal anti-saccades (movement of eyes away from a point of fixation), and horizontal and vertical pursuits (fixation of eyes on a moving object).
Binocular (both eyes) movements viewing were measured during the saccades test. During this 1-min trial, the visual target (small square) will jump from 0° to 10° to the right or to the left in a pseudorandom sequence. Duration of the target on screen vary pseudo-randomly from 1,500 to 2,000 ms to minimize anticipation of the subject. Then the visual target will be extinguished during 200 ms before the next move starting from the center. The participant is instructed to track the target on screen from center to side and from side to center without anticipation. The antisaccades test is identical to the saccades test in its procedure (with 10° jumps of the target) except that there is no extinction of the target. […]
Binocular movements viewing were measured during the pursuit tests. […]

[3] = Safety and tolerability, treatment-emergent adverse events (Example 1); format: in vivo, human; settings: for Any TEAE, subjects (%): 9 subjects
Text: As used herein, the term “Adverse Event” refers to any event, side-effect, or other untoward medical occurrence in a subject (i.e., a clinical study participant) administered a pharmaceutical product. […] As used herein, a “treatment-emergent adverse event” or “TEAE” refers to an adverse event not present prior to treatment (i.e., receiving a dose of Compound 1) or an already present event that worsens in intensity or frequency following treatment. TEAEs may be classified by system organ class (SOC); an exemplary SOC is Nervous System Disorders. Examples of Nervous System Disorder TEAEs include somnolence, headache, dizziness, lethargy, balance disorder, and cognitive disorder.
A three-part study to assess the safety, tolerability, and PK/PD properties of Compound 1 in humans was performed. Part 1 was a randomized, double-blinded, placebo-controlled, single ascending dose (SAD) phase. Part 2 was a randomized, open-label phase to assess the effect of food on Compound 1. Part 3 was a randomized, double-blinded, placebo-controlled multiple-ascending dose phase.
Part 1 Primary Objectives: to evaluate the safety and tolerability of single oral doses of Compound 1 and to determine the maximum tolerated dose (MTD) following ascending single oral doses of Compound 1. Part 1 Primary Endpoints: incidence, severity, and duration of treatment-emergent adverse events (TEAEs), serious adverse events (SAEs), and incidence of clinically significant vital signs, pulse oximetry, ECGs, safety laboratory, or physical examination findings and MTD of Compound 1 in healthy subjects.
The safety, tolerability, and PK of Compound 1 administered as multiple doses (up to 7 days) was determined. Subjects in cohorts 4-6 were administered Compound 1 once daily in the morning (QAM) in a fed state. Subjects in cohorts 7-8 were administered Compound 1 once daily in the evening (QHS) in a fed state.
Part 3 Primary Objective: to evaluate the safety and tolerability of multiple oral doses of Compound 1 and to determine the maximum tolerated dose of Compound 1 following multiple oral doses. Part 3 Primary Endpoints: incidence, severity, and duration of treatment-emergent adverse events, […], and incidence of clinically significant vital signs, pulse oximetry, ECGs, safety laboratory, or physical examination findings, and the maximum tolerated dose of Compound 1 in healthy subjects.

## CCCCCCCC(=O)OCC(COC(=O)CCCCCCC)OC(=O)CC(C)CC(=O)OCOC(=O)O[C@@H]1CC[C@@]2(C)[C@@H](CC[C@@H]3[C@@H]2CC[C@]2(C)[C@@H](C(C)=O)CC[C@@H]32)C1 (some centres unmarked) [Compound 1]
[1]; doses up to 560 mg
  dose proportionality of mean plasma allopregnanolone and combined allopregnanolone concentrations: increased at a dose proportional rate
[1]; human, oral
  oral bioavailability: high oral bioavailability
[1]; range of 750 to 1000 mg
  dose proportionality of several PK parameters: greater than dose-proportional increase
[1]; single ascending doses
  maximal concentrations and exposure values, combined allopregnanolone compared to allopregnanolone: at least 10 times higher
[2]
  time of maximum drop of saccade peak velocity: 4 hour post-dose
[3]; Example 1, Parts 1-3
  tolerability across dose levels tested: generally well tolerated
[3]; MAD Cohort 4, 250 mg QAM
  TEAE Abnormal Dreams (Psychiatric Disorders), subjects (%): 0
  TEAE Balance Disorder (Nervous System Disorders), subjects (%): 0
  TEAE Cognitive Disorder (Nervous System Disorders), subjects (%): 0
  TEAE Diarrhoea (Gastrointestinal Disorders), subjects (%): 0
  TEAE Disturbance in attention (Nervous System Disorders), subjects (%): 0
  TEAE Dizziness (Nervous System Disorders), subjects (%): 0
  TEAE Euphoric Mood (Psychiatric Disorders), subjects (%): 0
  TEAE Fatigue (General Disorders and Administration Site Conditions), subjects (%): 0
  TEAE Hallucination, Visual (Psychiatric Disorders), subjects (%): 0
  TEAE Headache (Nervous System Disorders), subjects (%): 0
  TEAE Lethargy (Nervous System Disorders), subjects (%): 0
  TEAE Rhinorrhoea (Respiratory, Thoracic, and Mediastinal Disorders), subjects (%): 0
  TEAE Sedation (Nervous System Disorders), subjects (%): 0
  TEAE Somnolence (Nervous System Disorders), subjects (%): 7 (77.8%)
  Any TEAE, subjects (%): 7 (77.8%)
[3]; MAD Cohort 5, 375 mg QAM
  TEAE Abnormal Dreams (Psychiatric Disorders), subjects (%): 1 (11.1%)
  TEAE Balance Disorder (Nervous System Disorders), subjects (%): 0
  TEAE Cognitive Disorder (Nervous System Disorders), subjects (%): 1 (11.1%)
  TEAE Diarrhoea (Gastrointestinal Disorders), subjects (%): 0
  TEAE Disturbance in attention (Nervous System Disorders), subjects (%): 0
  TEAE Dizziness (Nervous System Disorders), subjects (%): 0
  TEAE Euphoric Mood (Psychiatric Disorders), subjects (%): 0
  TEAE Fatigue (General Disorders and Administration Site Conditions), subjects (%): 0
  TEAE Hallucination, Visual (Psychiatric Disorders), subjects (%): 0
  TEAE Headache (Nervous System Disorders), subjects (%): 0
  TEAE Lethargy (Nervous System Disorders), subjects (%): 0
  TEAE Rhinorrhoea (Respiratory, Thoracic, and Mediastinal Disorders), subjects (%): 0
  TEAE Sedation (Nervous System Disorders), subjects (%): 0
  TEAE Somnolence (Nervous System Disorders), subjects (%): 6 (66.7%)
  Any TEAE, subjects (%): 6 (66.7%)
[3]; MAD Cohort 6, 500 mg QAM
  TEAE Abnormal Dreams (Psychiatric Disorders), subjects (%): 0
  TEAE Balance Disorder (Nervous System Disorders), subjects (%): 7 (77.8%)
  TEAE Cognitive Disorder (Nervous System Disorders), subjects (%): 4 (44.4%)
  TEAE Diarrhoea (Gastrointestinal Disorders), subjects (%): 0
  TEAE Disturbance in attention (Nervous System Disorders), subjects (%): 1 (11.1%)
  TEAE Dizziness (Nervous System Disorders), subjects (%): 1 (11.1%)
  TEAE Euphoric Mood (Psychiatric Disorders), subjects (%): 1 (11.1%)
  TEAE Fatigue (General Disorders and Administration Site Conditions), subjects (%): 0
  TEAE Hallucination, Visual (Psychiatric Disorders), subjects (%): 1 (11.1%)
  TEAE Headache (Nervous System Disorders), subjects (%): 0
  TEAE Lethargy (Nervous System Disorders), subjects (%): 1 (11.1%)
  TEAE Rhinorrhoea (Respiratory, Thoracic, and Mediastinal Disorders), subjects (%): 0
  TEAE Sedation (Nervous System Disorders), subjects (%): 0
  TEAE Somnolence (Nervous System Disorders), subjects (%): 9 (100%)
  Any TEAE, subjects (%): 9 (100%)
[3]; MAD Cohort 7, 375 mg QHS
  TEAE Abnormal Dreams (Psychiatric Disorders), subjects (%): 0
  TEAE Balance Disorder (Nervous System Disorders), subjects (%): 2
  TEAE Cognitive Disorder (Nervous System Disorders), subjects (%): 2 (22.2%)
  TEAE Diarrhoea (Gastrointestinal Disorders), subjects (%): 1 (11.1%)
  TEAE Disturbance in attention (Nervous System Disorders), subjects (%): 1 (11.1%)
  TEAE Dizziness (Nervous System Disorders), subjects (%): 1 (11.1%)
  TEAE Euphoric Mood (Psychiatric Disorders), subjects (%): 1 (11.1%)
  TEAE Fatigue (General Disorders and Administration Site Conditions), subjects (%): 0
  TEAE Hallucination, Visual (Psychiatric Disorders), subjects (%): 0
  TEAE Headache (Nervous System Disorders), subjects (%): 1 (11.1%)
  TEAE Lethargy (Nervous System Disorders), subjects (%): 0
  TEAE Rhinorrhoea (Respiratory, Thoracic, and Mediastinal Disorders), subjects (%): 0
  TEAE Sedation (Nervous System Disorders), subjects (%): 0
  TEAE Somnolence (Nervous System Disorders), subjects (%): 5 (55.6%)
  Any TEAE, subjects (%): 6 (66.7%)
[3]; MAD Cohort 8, 375 mg QHS
  TEAE Abnormal Dreams (Psychiatric Disorders), subjects (%): 0
  TEAE Balance Disorder (Nervous System Disorders), subjects (%): 0
  TEAE Cognitive Disorder (Nervous System Disorders), subjects (%): 0
  TEAE Diarrhoea (Gastrointestinal Disorders), subjects (%): 0
  TEAE Disturbance in attention (Nervous System Disorders), subjects (%): 0
  TEAE Dizziness (Nervous System Disorders), subjects (%): 0
  TEAE Euphoric Mood (Psychiatric Disorders), subjects (%): 0
  TEAE Fatigue (General Disorders and Administration Site Conditions), subjects (%): 0
  TEAE Hallucination, Visual (Psychiatric Disorders), subjects (%): 0
  TEAE Headache (Nervous System Disorders), subjects (%): 0
  TEAE Lethargy (Nervous System Disorders), subjects (%): 0
  TEAE Rhinorrhoea (Respiratory, Thoracic, and Mediastinal Disorders), subjects (%): 0
  TEAE Sedation (Nervous System Disorders), subjects (%): 1 (11.1%)
  TEAE Somnolence (Nervous System Disorders), subjects (%): 1 (11.1%)
  Any TEAE, subjects (%): 2 (22.2%)
[3]; Part 2, 140 mg
  effect of food on safety or tolerability: Food did not impact safety or tolerability
[3]; most frequently at doses greater than or equal to 500 mg
  most common adverse event: somnolence

— patent publication US20260284079A1, “LIPID PRODRUGS OF ALLOPR[…] USES THEREOF” (Seaport Therapeutics, Inc., priority 2023, published 2026)
